Holding throughout (type): cell-based
In one experiment the target is T1, EGFR (HCC827 cells) (Homo sapiens, UniProt P00533, DEL746-750).
T1 construct: endogenous in cells; host or cells: HCC827
Nature of the experiment: EGFR degradation HTRF assay, HCC827 cells. The following applies: HCC827, 16h treatment; for Dmax: maximum percentage of degradation. The procedure:
BaF3 WT(wild type), BaF3-LTC(L858R/T790M/C797S) and BaF3-DTC(Del19/T790M/C797S) cells are treated with compounds diluted in 0.2% DMSO cell culture medium and incubate for 16h, 37° C., 5% CO2, H1975-#36, H1975-#28, H1975-#23 and HCC827 cells are treated with compounds diluted in 0.2% DMSO cell culture medium on day 2, incubate for 16h, 37° C., 5% CO2.the final concentriation of compounds in all assay is start with 10 uM, 5-fold dilution, total 8 doses were included.
After 16h treatment, add HTRF lysis buffer to each well; seal the plate and incubate 1 hour at room temperature on a plate shaker; Once the cells are lysed, 16 μL of cell lysate are transferred to a PE 384-well HTRF detection plate; 4 μL of pre-mixed HTRF antibodies are added to each well; Cover the plate with a plate sealer, spin 1000 rpm for 1 min, Incubate overnight at room temperature; Read on BMG PheraStar with HTRF protocol (337 nm-665 nm-620 nm).
The inhibition (degradation) percentage of the compound was calculated by the following equation: Inhibition percentage of Compound=100-100×(Signal-low control)/(High control-low control), wherein signal=each test compound group
High control=Cell group with added DMSO and without compound, indicating microplate readings without EGFR degradation;
Dmax is the maximum percentage of inhibition (degradation).
The IC50 (DC50) value of a compound can be obtained by fitting the following equation
Y=Bottom+(TOP−Bottom)/(1+((IC50/X)^hillslope))
Wherein, X and Y are known values, and IC50, Hillslope, Top and Bottom are the parameters obtained by fitting with software. Y is the inhibition percentage (calculated from the equation), X is the concentration of the compound; IC50 is the concentration of the compound when the 50% inhibition is reached. The smaller the IC50 value is, the stronger the inhibitory ability of the compound is. Vice versa, the higher the IC50 value is, the weaker the inhibitory ability of the compound is; Hillslope represents the slope of the fitted curve, generally around 1*; Bottom represents the minimum value of the curve obtained by data fitting, which is generally 0%±20%; Top represents the maximum value of the curve obtained by data fitting, which is generally 100%±20%. The experimental data were fitted by calculating and analyzing with Dotmatics data analysis software.
For orientation: TR-FRET usually uses a lanthanide donor and a delayed reading to cut background.

In experiment [1] the test system is EGFR Del19/T790M/C797S (BaF3-DTC cells). In words: EGFR degradation HTRF assay, BaF3-DTC cells. The following applies: 16h treatment; for DTC Dmax (%): maximum percentage of degradation; for DC50: read-out: DTC DC50. The gist of the method: (§1)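 Cells treated 16 h at 37 °C, 5% CO2 in medium with 0.2% DMSO; top final concentration 10 uM, 5-fold dilution, 8 doses. Lysates read by HTRF (665/620 nm); degradation % versus DMSO high control, DC50 from four-parameter fit, Dmax as maximal degradation.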

For experiment [2], the target named is T2, EGFR L858R/T790M/C797S (BaF3-LTC cells) (Homo sapiens, UniProt P00533, C797S/L858R/T790M).
T2 construct: expressed in transfected cells; host or cells: BaF3
T2 sequence (P00533 25-1210 T790M/C797S/L858R): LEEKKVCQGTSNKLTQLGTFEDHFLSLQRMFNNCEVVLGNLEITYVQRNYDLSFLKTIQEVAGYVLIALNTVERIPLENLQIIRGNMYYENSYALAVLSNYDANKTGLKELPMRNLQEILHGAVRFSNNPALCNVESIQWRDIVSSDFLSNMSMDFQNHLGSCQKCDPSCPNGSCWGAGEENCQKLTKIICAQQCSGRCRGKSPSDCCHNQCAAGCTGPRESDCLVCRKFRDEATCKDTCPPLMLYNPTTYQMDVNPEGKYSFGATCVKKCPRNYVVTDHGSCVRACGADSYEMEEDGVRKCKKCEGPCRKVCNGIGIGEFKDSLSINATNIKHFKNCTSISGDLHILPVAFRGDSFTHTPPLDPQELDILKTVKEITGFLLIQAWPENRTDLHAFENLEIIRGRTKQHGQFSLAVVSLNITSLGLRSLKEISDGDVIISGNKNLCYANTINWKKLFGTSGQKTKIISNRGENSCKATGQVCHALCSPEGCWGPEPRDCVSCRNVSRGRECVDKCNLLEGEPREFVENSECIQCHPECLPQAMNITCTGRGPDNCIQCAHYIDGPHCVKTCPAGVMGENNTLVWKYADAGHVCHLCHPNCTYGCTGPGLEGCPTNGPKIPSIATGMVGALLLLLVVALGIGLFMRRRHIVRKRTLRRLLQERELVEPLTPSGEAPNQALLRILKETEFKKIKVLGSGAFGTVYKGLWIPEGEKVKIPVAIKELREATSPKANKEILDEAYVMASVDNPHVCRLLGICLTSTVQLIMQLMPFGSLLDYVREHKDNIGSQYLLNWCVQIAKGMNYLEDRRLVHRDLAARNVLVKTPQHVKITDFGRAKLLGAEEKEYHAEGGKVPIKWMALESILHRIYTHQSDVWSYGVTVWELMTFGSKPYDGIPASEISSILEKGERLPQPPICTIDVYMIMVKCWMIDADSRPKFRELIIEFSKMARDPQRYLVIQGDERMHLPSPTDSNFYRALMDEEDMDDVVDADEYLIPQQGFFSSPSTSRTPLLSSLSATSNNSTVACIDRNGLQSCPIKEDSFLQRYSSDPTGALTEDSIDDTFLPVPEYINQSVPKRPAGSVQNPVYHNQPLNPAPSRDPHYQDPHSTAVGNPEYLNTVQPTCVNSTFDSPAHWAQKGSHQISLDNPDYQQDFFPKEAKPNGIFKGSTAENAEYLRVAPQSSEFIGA
In words: EGFR degradation HTRF assay, BaF3-LTC cells. The following applies: BaF3-LTC, 16h treatment; for Dmax: maximum percentage of degradation, read-out: LTC Dmax (%); for DC50: read-out: LTC DC50. An outline of the steps: as §1

T1 sequence (P00533 with tags, fused parts or gaps DEL746-750): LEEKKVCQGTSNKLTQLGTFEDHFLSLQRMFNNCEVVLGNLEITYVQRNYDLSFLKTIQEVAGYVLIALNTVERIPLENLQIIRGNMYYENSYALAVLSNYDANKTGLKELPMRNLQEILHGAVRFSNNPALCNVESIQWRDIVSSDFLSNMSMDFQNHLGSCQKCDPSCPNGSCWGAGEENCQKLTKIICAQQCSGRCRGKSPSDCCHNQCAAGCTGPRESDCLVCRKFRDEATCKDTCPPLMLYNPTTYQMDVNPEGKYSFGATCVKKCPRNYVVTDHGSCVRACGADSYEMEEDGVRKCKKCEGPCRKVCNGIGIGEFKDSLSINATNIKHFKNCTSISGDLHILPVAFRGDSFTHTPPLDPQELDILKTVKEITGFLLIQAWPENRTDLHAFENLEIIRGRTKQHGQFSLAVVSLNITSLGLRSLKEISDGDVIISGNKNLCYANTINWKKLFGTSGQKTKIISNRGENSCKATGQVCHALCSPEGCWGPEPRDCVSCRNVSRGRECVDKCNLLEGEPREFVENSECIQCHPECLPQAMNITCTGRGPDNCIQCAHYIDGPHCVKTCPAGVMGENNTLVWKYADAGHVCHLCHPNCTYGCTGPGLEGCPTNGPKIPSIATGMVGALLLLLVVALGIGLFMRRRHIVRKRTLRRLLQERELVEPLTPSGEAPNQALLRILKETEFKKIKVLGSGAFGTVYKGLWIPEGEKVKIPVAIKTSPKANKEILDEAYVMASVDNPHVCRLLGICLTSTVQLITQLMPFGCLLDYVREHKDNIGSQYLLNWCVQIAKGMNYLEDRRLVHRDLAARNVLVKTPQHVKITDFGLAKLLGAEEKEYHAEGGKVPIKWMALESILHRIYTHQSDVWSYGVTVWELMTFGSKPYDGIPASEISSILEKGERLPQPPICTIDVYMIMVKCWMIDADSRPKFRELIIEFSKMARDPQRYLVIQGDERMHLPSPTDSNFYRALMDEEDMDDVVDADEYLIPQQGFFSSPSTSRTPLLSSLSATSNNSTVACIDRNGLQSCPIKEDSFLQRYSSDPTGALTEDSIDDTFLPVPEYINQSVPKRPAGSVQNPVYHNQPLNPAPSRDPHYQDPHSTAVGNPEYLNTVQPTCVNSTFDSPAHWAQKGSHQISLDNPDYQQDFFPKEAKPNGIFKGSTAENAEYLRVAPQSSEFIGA

One may read the DC50 as the midpoint of the concentration-degradation curve. Usually Dmax stands for the largest share of the target that was removed. With `CCc1cc(Nc2ncc(Br)c(Nc3ccc4nccnc4c3P(C)(C)=O)n2)c(OC)cc1N1CCC(N2CCN(CCCOc3ccc(C4CCC(=O)NC4=O)cc3)CC2)CC1` (centres unmarked) [Example 18, 3-(4-(3-(4-(1-(4-((5-bromo-4-((5-(dimethylphosphoryl)quinoxalin-6-yl)amino)pyrimidin-2-yl)amino)-2-ethyl-5-methoxyphenyl)piperidin-4-yl)piperazin-1-yl)propoxy)phenyl)piperidine-2,6-dione], at EGFR (HCC827 cells), the DC50 is 15.4 nM and the Dmax was 77.5%.

At EGFR (HCC827 cells), `CCc1cc(Nc2ncc(Br)c(Nc3ccc4nccnc4c3P(C)(C)=O)n2)c(OC)cc1N1CCC(N2CCN(C(=O)CCCCN3CCN(c4ccc5c(c4)C(=O)N(C4CCC(=O)NC4=O)C5=O)CC3)CC2)CC1` (centres unmarked) [Example 62, 5-(4-(5-(4-(1-(4-((5-bromo-4-((5-(dimethylphosphoryl)quinoxalin-6-yl)amino)pyrimidin-2-yl)amino)-2-ethyl-5-methoxyphenyl)piperidin-4-yl)piperazin-1-yl)-5-oxopentyl)piperazin-1-yl)-2-(2,6-dioxopiperidin-3-yl)isoindoline-1,3-dione] showed a DC50 of 6.24 nM and a Dmax of 83.7%.

Consider `CCc1cc(Nc2ncc(Br)c(Nc3ccc4nccnc4c3P(C)(C)=O)n2)c(OC)cc1N1CCC(N2CCN(C(=O)CN3CCN(c4ccc5c(c4)C(=O)N(C4CCC(=O)NC4=O)C5)CC3)CC2)CC1` (centres unmarked) [Example 68, 3-(6-(4-(2-(4-(1-(4-((5-bromo-4-((5-(dimethylphosphoryl)quinoxalin-6-yl)amino)pyrimidin-2-yl)amino)-2-ethyl-5-methoxyphenyl)piperidin-4-yl)piperazin-1-yl)-2-oxoethyl)piperazin-1-yl)-1-oxoisoindolin-2-yl)piperidine-2,6-dione], for which, at EGFR (HCC827 cells), half-maximal degradation (DC50) was put at 13.1 nM and the Dmax worked out at 64.3%.

With `COc1cc(N2CCC(N(C)CCc3ccc(C4CCC(=O)NC4=O)cn3)CC2)c(C)cc1Nc1ncc(Br)c(Nc2ccc3nccnc3c2P(C)(C)=O)n1` (centres unmarked) [Example 74, 3-(6-(2-((1-(4-((5-bromo-4-((5-(dimethylphosphoryl)quinoxalin-6-yl)amino)pyrimidin-2-yl)amino)-5-methoxy-2-methylphenyl)piperidin-4-yl)(methyl)amino)ethyl)pyridin-3-yl)piperidine-2,6-dione], on EGFR (HCC827 cells), it took 57.2 nM to reach half-maximal degradation (DC50) and the Dmax was found to be 85.2%.

For the compound `COc1cc(N2CCC(N(C)CCc3ccc(C4CCC(=O)NC4=O)cc3)CC2)c(C)cc1Nc1ncc(Br)c(Nc2ccc3nccnc3c2P(C)(C)=O)n1` (centres unmarked) [Example 75, 3-(4-(2-((1-(4-((5-bromo-4-((5-(dimethylphosphoryl)quinoxalin-6-yl)amino)pyrimidin-2-yl)amino)-5-methoxy-2-methylphenyl)piperidin-4-yl)(methyl)amino)ethyl)phenyl)piperidine-2,6-dione], at EGFR (HCC827 cells), the DC50 came to 50.6 nM and the Dmax came to 72.1%.

As for `COc1cc(N2CCC(N(C)CCOc3ccc(C4CCC(=O)NC4=O)cc3)CC2)c(C)cc1Nc1ncc(Br)c(Nc2ccc3nccnc3c2P(C)(C)=O)n1` (centres unmarked) [Example 76, 3-(4-(2-((1-(4-((5-bromo-4-((5-(dimethylphosphoryl)quinoxalin-6-yl)amino)pyrimidin-2-yl)amino)-5-methoxy-2-methylphenyl)piperidin-4-yl)(methyl)amino)ethoxy)phenyl)piperidine-2,6-dione], at EGFR (HCC827 cells), it took 30.5 nM to reach half-maximal degradation (DC50) and the Dmax turned out to be 77.1%.

On EGFR (HCC827 cells), `COc1cc(N2CCC(N(C)CCC3CCN(c4ccc(C5CCC(=O)NC5=O)cc4)CC3)CC2)c(C)cc1Nc1ncc(Br)c(Nc2ccc3nccnc3c2P(C)(C)=O)n1` (centres unmarked) [Example 78, 3-(4-(4-(2-((1-(4-((5-bromo-4-((5-(dimethylphosphoryl)quinoxalin-6-yl)amino)pyrimidin-2-yl)amino)-5-methoxy-2-methylphenyl)piperidin-4-yl)(methyl)amino)ethyl)piperidin-1-yl)phenyl)piperidine-2,6-dione] registered a DC50 of 15.2 nM and a Dmax of 70.1%.

On EGFR (HCC827 cells), `COc1cc(N2CCC(N(C)CCC3CCN(c4ccc(N5CCC(=O)NC5=O)cc4)CC3)CC2)c(C)cc1Nc1ncc(Br)c(Nc2ccc3nccnc3c2P(C)(C)=O)n1` [Example 80, 1-(4-(4-(2-((1-(4-((5-bromo-4-((5-(dimethylphosphoryl)quinoxalin-6-yl)amino)pyrimidin-2-yl)amino)-5-methoxy-2-methylphenyl)piperidin-4-yl)(methyl)amino)ethyl)piperidin-1-yl)phenyl)dihydropyrimidine-2,4(1H,3H)-dione] yielded a DC50 of 35.9 nM and a Dmax of 74.4%.

On to `COc1cc(N2CCN(CCc3ccc(C4CCC(=O)NC4=O)cc3)CC2)c(C)cc1Nc1ncc(Br)c(Nc2ccc3nccnc3c2P(C)(C)=O)n1` (centres unmarked) [Example 86, 3-(4-(2-(4-(4-((5-bromo-4-((5-(dimethylphosphoryl)quinoxalin-6-yl)amino)pyrimidin-2-yl)amino)-5-methoxy-2-methylphenyl)piperazin-1-yl)ethyl)phenyl)piperidine-2,6-dione], for which, on EGFR (HCC827 cells), the DC50 was determined as 66.7 nM and the Dmax stood at 81%.

With `COc1cc(N2CCN(CCc3ccc(C4CCC(=O)NC4=O)cn3)CC2)c(C)cc1Nc1ncc(Br)c(Nc2ccc3nccnc3c2P(C)(C)=O)n1` (centres unmarked) [Example 87, 3-(6-(2-(4-(4-((5-bromo-4-((5-(dimethylphosphoryl)quinoxalin-6-yl)amino)pyrimidin-2-yl)amino)-5-methoxy-2-methylphenyl)piperazin-1-yl)ethyl)pyridin-3-yl)piperidine-2,6-dione], at EGFR (HCC827 cells), it took 57.5 nM to reach half-maximal degradation (DC50) and the Dmax was found to be 86.2%.

Take `COc1cc(N2CCN(CCOc3ccc(C4CCC(=O)NC4=O)cc3)CC2)c(C)cc1Nc1ncc(Br)c(Nc2ccc3nccnc3c2P(C)(C)=O)n1` (centres unmarked) [Example 91, 3-(4-(2-(4-(4-((5-bromo-4-((5-(dimethylphosphoryl)quinoxalin-6-yl)amino)pyrimidin-2-yl)amino)-5-methoxy-2-methylphenyl)piperazin-1-yl)ethoxy)phenyl)piperidine-2,6-dione]: on EGFR (HCC827 cells), the DC50 worked out at 90.4 nM and the Dmax was determined as 73.5%.

At EGFR (HCC827 cells), `COc1cc(N2CCN(CCCOc3ccc(OC4CCC(=O)NC4=O)cc3)CC2)c(C)cc1Nc1ncc(Br)c(Nc2ccc3nccnc3c2P(C)(C)=O)n1` (centres unmarked) [Example 92, 3-(4-(3-(4-(4-((5-bromo-4-((5-(dimethylphosphoryl)quinoxalin-6-yl)amino)pyrimidin-2-yl)amino)-5-methoxy-2-methylphenyl)piperazin-1-yl)propoxy)phenoxy)piperidine-2,6-dione] came in with a DC50 of 306 nM and a Dmax of 76.8%.

On to `CCc1cc(Nc2ncc(Br)c(Nc3ccc4c(=O)n(C)cnc4c3P(C)(C)=O)n2)c(OC)cc1N1CCC(N2CCN(CCC3CCN(c4cc(F)c(C5CCC(=O)NC5=O)c(F)c4)CC3)CC2)CC1` (centres unmarked) [Example 721, 3-(4-(4-(2-(4-(1-(4-((5-bromo-4-((8-(dimethylphosphoryl)-3-methyl-4-oxo-3,4-dihydroquinazolin-7-yl)amino)pyrimidin-2-yl)amino)-2-ethyl-5-methoxyphenyl)piperidin-4-yl)piperazin-1-yl)ethyl)piperidin-1-yl)-2,6-difluorophenyl)piperidine-2,6-dione], for which, in experiment [1], the “DTC Dmax (%)” value stood at 88.98% and the DC50 came to 7.28 nM. Also, in experiment [2], the Dmax was determined as 91.9% and the half-maximal degradation concentration (DC50) was 49.4 nM.

For the compound `COc1cc(N2CCN(C3CN(C(=O)c4cnc(C(=O)Nc5ccc(C6CCC(=O)NC6=O)cc5)cn4)C3)CC2)c(C)cc1Nc1ncc(Br)c(Nc2ccc3nccnc3c2P(C)(C)=O)n1` (centres unmarked) [Example 723, 5-(3-(4-(4-((5-bromo-4-((5-(dimethylphosphoryl)quinoxalin-6-yl)amino)pyrimidin-2-yl)amino)-5-methoxy-2-methylphenyl)piperazin-1-yl)azetidine-1-carbonyl)-N-(4-(2,6-dioxopiperidin-3-yl)phenyl)pyrazine-2-carboxamide], in experiment [1], the “DTC Dmax (%)” value was found to be 76.49% and the DC50 came out at 5.67 nM. Moreover, in experiment [2], the Dmax came to 81.7% and the DC50 is 12.1 nM.

The record behind these values is patent publication US20230265116A1, “DEGRADATION OF (EGFR) BY CONJUGATION OF EGFR INHIBITORS WITH E3 LIGASE LIGAND AND METHODS OF USE” (BEIGENE, LTD., priority 2020, published 2023).
